The results in this text go back to patent US20220153766A1, “CONDENSED TRICYCLIC COMPOUND USED AS KINASE INHIBITOR” (Hangzhou Innogate Pharma Co., Ltd., priority 2019, published 2022).

Molecules are shown by their SMILES.

The target of series [1] is EGFR (T790M/L858R/C797S) (Homo sapiens, UniProt P00533, C797S/L858R/T790M). Nature of the series: EGFR (T790M/L858R/C797S) kinase activity inhibition, Caliper mobility shift assay. The conditions noted are these: kinase 2.5 nM, ATP 40 μM. Type of series: biochemical. As for the experimental part:
The basic method is the same as ALK activity test method 2. The test concentration of the compound starts at 2 μM, and is diluted 5 folds into 6 (7 for individual compounds) concentration points. […] Add 30 μL of stop solution containing EDTA to stop the kinase reaction. Use Caliper EZ Reader to read the conversion rate. Inhibition rate %=(Average positive control conversion rate %−Sample conversion rate %/(Average positive control conversion rate %−Average negative control conversion rate %). Among them: negative control wells represent the conversion rate readings without enzyme activity; positive control wells represent the conversion rate readings of wells without compound inhibition. Take the log value of the concentration as the X-axis, and the percentage inhibition rate on the Y-axis. Log (inhibitor) vs. response—Variable slope of analysis software GraphPad Prism 5 was used to fit the curve to obtain the IC50 value of each compound on the enzyme activity. Calculation formula: Y=Bottom+(Top−Bottom)/(1+10^((Log IC50−X)*HillSlope)).

Series [2] addresses ALK (Homo sapiens, UniProt Q9UM73). The series is described as follows: ALK kinase activity inhibition, Caliper mobility shift assay, method 2. Type of series: biochemical. The conditions noted are these: ALK 1.25 nM, ATP 30 μM. The method, then: 2. ALK Kinase Activity Inhibition Experiment:
Method 2: Caliper mobility shift assay was used to measure ALK protein kinase activity. The method is basically the same as method 1, with individual parameters adjusted. The initial concentration of the compound is 1 mM, and sequentially diluted 4-fold to make 6 points (7 points for some individual compounds). Use a dispenser Echo 550 to transfer 250 nL of 100-fold final concentration of the compound to the target plate 3573, add 10 μL ALK with final concentration of 1.25 nM, incubate at room temperature for 10 minutes (the negative control well contains 10 μL kinase buffer and 250 nL 100% DMSO; the positive control well contains 10 μL kinase solution and 250 nL 100% DMSO). On the kinase ALK, add 15 μL of ATP with a final concentration of 30 μM and 3 μM of the substrate peptide No. 22 mixed solution to react for 25 minutes; add 30 μL of stop detection solution containing EDTA to stop the kinase reaction. Use Caliper EZ Reader to read the conversion rate. Inhibition rate %=(Average positive control conversion rate %−Sample conversion rate %/(Average positive control conversion rate %−Average negative control conversion rate %). Among them: negative control wells represent the conversion rate readings without enzyme activity; positive control wells represent the conversion rate readings of wells without compound inhibition. Take the log value of the concentration as the X-axis, and the percentage inhibition rate on the Y-axis. Log (inhibitor) vs. response—Variable slope of analysis software GraphPad Prism 5 was used to fit the curve to obtain the IC50 value of each compound on the enzyme activity. Calculation formula: Y=Bottom+(Top−Bottom)/(1+10^((Log IC50−X)*HillSlope)).

Series [3] in a line: Pharmacokinetic study in rats after intragastrical administration. Type of series: in vivo. To be noted: male, rat, plasma, po, SD rats, 3 mg/kg. As for the experimental part: Example 55: Pharmacokinetic Study in Rats
Instruments: XEVO TQ-S LC/MS instrument produced by Waters. All measurement data is collected and processed by Masslynx V4.1 software, and the data is calculated and processed by Microsoft Excel. Using WinNonLin 8.0 software, the statistical moment method was used to calculate the pharmacokinetic parameters. Mainly include kinetic parameters Tmax, T1/2, Cmax, AUClast etc. […] Injection volume: 5 μL.
Animals: 3 male SD rats with a weight range of 200-220 g. After purchase, they will be kept in the laboratory of the Experimental Animal Center for 2 days and then used. They will be fasted for 12 hours predose and 4 hours after dosing. Drinking water is free during the test. After the rats were gavage, blood samples were taken according to the established time point.
Solvent: 0.5% Methylcellulose (aqueous solution containing 0.4% Tween 80 and 1% ethanol). Preparation of the solution for intragastrical administration: accurately weigh the compound, add it to the solvent, and ultrasonically at room temperature for 5 minutes to completely dissolve the drug, and prepare a 0.3 mg/ml medicinal solution.
Pharmaceutical samples: representative compounds of the structure shown in the patented formula (I) of the present invention, generally, multiple samples with similar structures (with a molecular weight difference of more than 2 units) are taken, accurately weighed, and administered together (cassette PK). In this way, multiple compounds can be screened at the same time and their oral absorption rates can be compared. A single administration was also used to study the pharmacokinetics of the drug sample in rats.
After intragastrical administration, blood was taken from the orbit at 0.25, 0.5, 1, 2, 4, 9, 12 and 24 hours, and placed in a plastic centrifuge tube pretreated with sodium heparin. After centrifugation, the supernatant plasma was used for LC-MS/MS analysis.
Accurately weigh the compounds to prepare different concentrations, perform quantitative analysis on mass spectrometry to establish a standard curve, and then test the concentration of the above-mentioned compound in the plasma to obtain the compound concentration at different time points. All measurement data are collected and processed by relevant software, and the statistical moment method is used to calculate the pharmacokinetic parameters (mainly including kinetic parameters Tmax, T1/2, Cmax, AUClast etc). The results are as follows:
Table 7: Pharmacokinetic Parameters of the Compounds after Intragastrical Administration in SD Rats

The target of series [4] is MAP4K1 (HPK1) (Homo sapiens, UniProt Q92918). The series is described as follows: MAP4K1 (HPK1) kinase activity inhibition, Caliper mobility shift assay. Type of series: biochemical. The conditions noted are these: kinase 1.25 nM, ATP 10.1 μM. A digest of the protocol:
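HPK1 kinase at 1.25 nM final preincubated 10 min at room temperature with compound (5 points, 5-fold dilutions from 500 nM), then reacted 120 min with 10.1 μM ATP and 3 μM substrate peptide No. 25. EDTA stop; mobility-shift conversion read, IC50 from variable-slope four-parameter fit of % inhibition.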

Series [5] concerns the target Ba/F3_EGFR del19/T790M/C797S cells (Homo sapiens, UniProt P00533, T790M/C797S, cells depend on it, form not given). Nature of the series: Ba/F3_EGFR (del19-T790M-C797S) cell proliferation inhibition, CTG, method 2. Type of series: cell-based. The conditions noted are these: 2000 cells/well, 72 h, read-out: Ba/F3_EGFR (del19-T790M-C797S) cell proliferation inhibition (IC50 value) Method 2. The method, then: Take a small amount of cells and count them with ViCell. 2) Adjust the cell density, inoculate the cells in a 384-well plate at 2000/well, and incubate in a 37° C., 5% CO2 incubator for 4 hours. 3) Set up the program of Tecan HP D300, add the compound to the well plate. The maximum initial concentration of the compound is 1-4 μM, 3 folds dilution, 9 concentrations, and the DMSO content in each well is unified to 0.2%.
CTG method detection: 1) Take out the CTG reagent and cell plate and equilibrate at room temperature for 30 min, add 25 μL CTG to each well, shake at medium speed for 2 min, centrifuge at 1000 rpm for 1 minutes, and stand still at room temperature for 10 minutes. 2) Envision instrument reads the chemiluminescence signal value.
Data analysis: IC50 results are analyzed by IDBS's XL-fit 5.0 software.

Chain of MAP4K1 (HPK1) (Q92918 whole entry): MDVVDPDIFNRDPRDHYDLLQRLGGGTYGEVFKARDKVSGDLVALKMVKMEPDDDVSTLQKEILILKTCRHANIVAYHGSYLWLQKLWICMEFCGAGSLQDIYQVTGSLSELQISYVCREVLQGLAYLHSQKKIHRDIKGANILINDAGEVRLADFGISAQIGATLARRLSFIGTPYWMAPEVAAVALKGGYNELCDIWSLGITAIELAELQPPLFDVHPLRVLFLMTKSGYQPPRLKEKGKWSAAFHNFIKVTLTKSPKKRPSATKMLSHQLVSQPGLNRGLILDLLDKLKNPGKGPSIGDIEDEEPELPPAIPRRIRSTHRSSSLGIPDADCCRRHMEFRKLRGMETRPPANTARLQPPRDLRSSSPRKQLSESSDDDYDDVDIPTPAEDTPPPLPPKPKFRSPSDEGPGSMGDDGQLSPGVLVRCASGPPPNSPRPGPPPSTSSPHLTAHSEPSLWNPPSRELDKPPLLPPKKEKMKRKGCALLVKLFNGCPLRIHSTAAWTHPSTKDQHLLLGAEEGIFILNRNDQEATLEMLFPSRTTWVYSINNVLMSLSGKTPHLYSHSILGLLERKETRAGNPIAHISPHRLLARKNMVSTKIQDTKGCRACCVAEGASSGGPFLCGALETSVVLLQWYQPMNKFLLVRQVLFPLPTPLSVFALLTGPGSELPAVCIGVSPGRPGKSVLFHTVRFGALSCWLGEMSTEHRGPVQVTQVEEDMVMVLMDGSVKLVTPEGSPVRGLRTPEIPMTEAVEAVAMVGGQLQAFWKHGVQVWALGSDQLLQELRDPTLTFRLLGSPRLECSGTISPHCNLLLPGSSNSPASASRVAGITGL
Chain of ALK (Q9UM73 19-1620): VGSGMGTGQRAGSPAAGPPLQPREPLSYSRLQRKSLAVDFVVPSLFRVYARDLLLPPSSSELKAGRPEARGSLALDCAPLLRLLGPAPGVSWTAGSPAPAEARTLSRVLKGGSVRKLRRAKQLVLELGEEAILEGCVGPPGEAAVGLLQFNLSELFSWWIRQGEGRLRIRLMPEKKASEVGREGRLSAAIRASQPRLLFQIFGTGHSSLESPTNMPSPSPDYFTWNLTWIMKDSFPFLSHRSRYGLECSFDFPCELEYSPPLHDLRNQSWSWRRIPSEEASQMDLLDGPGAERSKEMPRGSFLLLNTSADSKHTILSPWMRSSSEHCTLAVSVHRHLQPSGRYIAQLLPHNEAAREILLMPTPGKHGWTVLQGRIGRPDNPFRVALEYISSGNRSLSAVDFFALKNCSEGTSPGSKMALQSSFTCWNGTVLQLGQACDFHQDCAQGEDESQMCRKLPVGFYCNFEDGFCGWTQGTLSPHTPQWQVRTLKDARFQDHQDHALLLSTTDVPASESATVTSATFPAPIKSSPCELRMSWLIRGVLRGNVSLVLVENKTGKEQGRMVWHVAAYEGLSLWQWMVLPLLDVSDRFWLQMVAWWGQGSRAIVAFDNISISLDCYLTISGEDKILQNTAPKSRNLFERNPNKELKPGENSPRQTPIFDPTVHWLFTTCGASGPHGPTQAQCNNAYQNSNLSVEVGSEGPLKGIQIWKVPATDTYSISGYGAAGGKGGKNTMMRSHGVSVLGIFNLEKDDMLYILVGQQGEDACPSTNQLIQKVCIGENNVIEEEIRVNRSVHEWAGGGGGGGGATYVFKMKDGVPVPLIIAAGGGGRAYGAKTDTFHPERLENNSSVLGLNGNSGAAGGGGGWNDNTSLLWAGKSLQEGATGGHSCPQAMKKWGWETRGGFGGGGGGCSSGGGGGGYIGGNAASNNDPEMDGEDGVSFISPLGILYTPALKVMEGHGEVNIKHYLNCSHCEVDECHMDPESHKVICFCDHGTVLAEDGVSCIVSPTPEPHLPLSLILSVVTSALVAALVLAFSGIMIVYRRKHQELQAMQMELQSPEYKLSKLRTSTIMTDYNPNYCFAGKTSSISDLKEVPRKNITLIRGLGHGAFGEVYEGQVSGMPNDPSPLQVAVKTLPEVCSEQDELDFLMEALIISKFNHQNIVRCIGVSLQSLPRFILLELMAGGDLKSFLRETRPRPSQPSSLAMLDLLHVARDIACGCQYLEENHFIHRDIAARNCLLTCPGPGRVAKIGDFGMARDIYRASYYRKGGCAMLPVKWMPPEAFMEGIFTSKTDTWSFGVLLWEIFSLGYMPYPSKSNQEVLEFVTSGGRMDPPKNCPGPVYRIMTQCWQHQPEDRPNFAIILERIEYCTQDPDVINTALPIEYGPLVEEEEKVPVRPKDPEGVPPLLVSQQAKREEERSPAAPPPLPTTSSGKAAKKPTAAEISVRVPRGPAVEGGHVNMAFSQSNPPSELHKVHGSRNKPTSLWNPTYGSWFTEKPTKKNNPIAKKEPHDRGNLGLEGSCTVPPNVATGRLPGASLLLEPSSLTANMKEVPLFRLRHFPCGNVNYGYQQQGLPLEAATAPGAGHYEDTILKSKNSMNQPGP
Chain of Ba/F3_EGFR del19/T790M/C797S cells (P00533 with tags, fused parts or gaps DEL746-750/T790M/C797S, form open): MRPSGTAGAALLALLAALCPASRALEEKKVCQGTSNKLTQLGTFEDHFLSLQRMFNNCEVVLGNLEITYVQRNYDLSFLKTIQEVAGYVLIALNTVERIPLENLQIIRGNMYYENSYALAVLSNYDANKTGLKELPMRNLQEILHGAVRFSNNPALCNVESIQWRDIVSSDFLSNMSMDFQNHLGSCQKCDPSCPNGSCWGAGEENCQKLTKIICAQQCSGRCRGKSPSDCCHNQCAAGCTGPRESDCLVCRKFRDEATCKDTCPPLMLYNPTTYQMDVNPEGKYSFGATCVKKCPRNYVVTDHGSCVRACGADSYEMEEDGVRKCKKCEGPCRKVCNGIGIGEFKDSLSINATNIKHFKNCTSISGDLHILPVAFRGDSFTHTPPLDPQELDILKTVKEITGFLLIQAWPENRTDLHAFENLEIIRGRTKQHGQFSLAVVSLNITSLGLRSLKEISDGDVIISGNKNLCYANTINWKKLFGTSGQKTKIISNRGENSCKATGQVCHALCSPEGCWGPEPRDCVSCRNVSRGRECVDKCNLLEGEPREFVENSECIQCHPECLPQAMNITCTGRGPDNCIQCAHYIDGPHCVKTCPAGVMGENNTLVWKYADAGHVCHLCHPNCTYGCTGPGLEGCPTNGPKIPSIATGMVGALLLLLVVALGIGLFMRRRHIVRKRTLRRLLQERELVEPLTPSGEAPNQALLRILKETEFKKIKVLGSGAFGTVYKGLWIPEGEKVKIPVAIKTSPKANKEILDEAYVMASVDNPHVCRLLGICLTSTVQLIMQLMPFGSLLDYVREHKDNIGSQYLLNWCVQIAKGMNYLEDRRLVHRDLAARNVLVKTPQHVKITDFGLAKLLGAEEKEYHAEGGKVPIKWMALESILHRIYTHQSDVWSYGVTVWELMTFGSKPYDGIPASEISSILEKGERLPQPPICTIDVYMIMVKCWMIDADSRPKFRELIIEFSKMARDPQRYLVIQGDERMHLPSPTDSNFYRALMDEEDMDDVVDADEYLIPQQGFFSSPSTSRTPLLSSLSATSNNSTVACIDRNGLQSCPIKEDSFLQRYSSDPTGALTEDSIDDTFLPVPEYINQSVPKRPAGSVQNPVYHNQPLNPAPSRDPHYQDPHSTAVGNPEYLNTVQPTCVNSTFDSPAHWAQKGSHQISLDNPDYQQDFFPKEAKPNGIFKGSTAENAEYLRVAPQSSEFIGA
Chain of EGFR (T790M/L858R/C797S) (P00533 25-1210 T790M/C797S/L858R): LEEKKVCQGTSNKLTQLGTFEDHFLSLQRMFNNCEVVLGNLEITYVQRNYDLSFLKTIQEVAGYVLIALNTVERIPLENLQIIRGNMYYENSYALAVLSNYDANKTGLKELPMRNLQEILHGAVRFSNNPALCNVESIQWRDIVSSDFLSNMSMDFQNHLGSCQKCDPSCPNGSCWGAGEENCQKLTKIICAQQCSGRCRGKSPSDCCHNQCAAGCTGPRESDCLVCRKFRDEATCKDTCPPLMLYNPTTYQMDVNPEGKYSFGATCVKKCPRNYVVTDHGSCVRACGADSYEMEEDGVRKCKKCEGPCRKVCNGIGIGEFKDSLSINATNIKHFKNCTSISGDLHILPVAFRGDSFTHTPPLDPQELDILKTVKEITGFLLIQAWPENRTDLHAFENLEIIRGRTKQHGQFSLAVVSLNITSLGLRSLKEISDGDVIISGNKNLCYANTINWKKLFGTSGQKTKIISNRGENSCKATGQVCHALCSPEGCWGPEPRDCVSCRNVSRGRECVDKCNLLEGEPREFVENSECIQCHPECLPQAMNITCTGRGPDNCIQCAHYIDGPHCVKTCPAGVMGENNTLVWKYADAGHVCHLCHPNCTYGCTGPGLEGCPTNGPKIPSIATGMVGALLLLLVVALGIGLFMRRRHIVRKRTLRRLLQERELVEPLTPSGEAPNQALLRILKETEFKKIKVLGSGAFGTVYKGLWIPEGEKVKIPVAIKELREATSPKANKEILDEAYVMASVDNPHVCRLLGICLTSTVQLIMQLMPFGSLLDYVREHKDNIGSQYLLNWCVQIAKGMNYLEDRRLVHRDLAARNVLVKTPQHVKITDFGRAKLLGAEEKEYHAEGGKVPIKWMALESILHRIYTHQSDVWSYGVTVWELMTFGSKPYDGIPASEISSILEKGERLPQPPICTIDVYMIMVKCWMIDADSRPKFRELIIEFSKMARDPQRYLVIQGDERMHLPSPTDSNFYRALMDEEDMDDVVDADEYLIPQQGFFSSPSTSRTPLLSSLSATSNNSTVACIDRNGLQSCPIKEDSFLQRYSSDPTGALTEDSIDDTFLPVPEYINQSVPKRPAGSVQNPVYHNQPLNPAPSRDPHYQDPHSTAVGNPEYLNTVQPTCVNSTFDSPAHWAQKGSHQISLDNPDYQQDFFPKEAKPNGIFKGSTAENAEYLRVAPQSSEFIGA

Usually IC50 stands for the concentration needed to halve the response being measured. A word on the Cmax: it is the peak of the concentration-time curve. Usually Tmax stands for the time from dosing to the highest level. In general, half-life refers to how long it takes for the measured level to halve. A high value points to slow decline. As for `CC(=O)N1CCC(N2CCN3c4c(C)cc(Nc5ncc(Cl)c(Nc6ccccc6P(C)(C)=O)n5)cc4OC[C@H]3C2)CC1` [Compound 32R], in series [1], the IC50 is under 3 nM. Further, the 50% inhibitory concentration (IC50) in series [2] fell in the range of 1 to 50 nM. In addition, in series [3], the peak level (Cmax) was 306 ng/mL, the Tmax amounted to 2 h and the half-life is 1.95 h. Besides, in series [3] (read-out: AUC0-24 h), the AUC(0-t) is 3420 ng·h/mL. Further, the IC50 in series [4] was at most 1 nM. Also, in series [5], the GI50 lay in the range of 20 to 100 nM.
